Measured values as given in article PMC9044951, “Bioinformatic Mining and Structure-Activity Profiling of Baeyer-Villiger Monooxygenases from Mycobacterium tuberculosis” (mSphere, 2022).

Key:
Rv0892 = Rv0892 (Mycobacterium tuberculosis, UniProt P9WNG1)
EthA (Rv3854c) = EthA (Rv3854c) (Mycobacterium tuberculosis, UniProt P9WNF9); format: biochemical
Rv0565c = Rv0565c (Mycobacterium tuberculosis, UniProt O53762)
CCCCCCC(C)=O = assay: purified protein; conditions: pH 7.5; 25.0 °C
CCCC(=O)CC(=O)OCC = assay: purified protein; conditions: pH 7.5; 25.0 °C

Sequence of Rv0565c (O53762 entry or part of it): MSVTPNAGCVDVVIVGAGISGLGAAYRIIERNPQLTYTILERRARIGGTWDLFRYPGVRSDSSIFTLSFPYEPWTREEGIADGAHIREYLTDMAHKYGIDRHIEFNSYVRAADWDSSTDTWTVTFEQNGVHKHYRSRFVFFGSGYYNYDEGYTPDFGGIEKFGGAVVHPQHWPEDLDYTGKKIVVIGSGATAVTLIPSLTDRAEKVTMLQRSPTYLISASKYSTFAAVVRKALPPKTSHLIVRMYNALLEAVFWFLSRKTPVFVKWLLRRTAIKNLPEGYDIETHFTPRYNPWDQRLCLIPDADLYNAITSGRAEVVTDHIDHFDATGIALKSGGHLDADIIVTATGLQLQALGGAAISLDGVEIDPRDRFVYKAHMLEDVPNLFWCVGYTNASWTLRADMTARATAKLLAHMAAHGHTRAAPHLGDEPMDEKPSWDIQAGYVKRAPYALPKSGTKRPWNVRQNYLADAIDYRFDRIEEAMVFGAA
Sequence of Rv0892 (P9WNG1 whole entry, looked up): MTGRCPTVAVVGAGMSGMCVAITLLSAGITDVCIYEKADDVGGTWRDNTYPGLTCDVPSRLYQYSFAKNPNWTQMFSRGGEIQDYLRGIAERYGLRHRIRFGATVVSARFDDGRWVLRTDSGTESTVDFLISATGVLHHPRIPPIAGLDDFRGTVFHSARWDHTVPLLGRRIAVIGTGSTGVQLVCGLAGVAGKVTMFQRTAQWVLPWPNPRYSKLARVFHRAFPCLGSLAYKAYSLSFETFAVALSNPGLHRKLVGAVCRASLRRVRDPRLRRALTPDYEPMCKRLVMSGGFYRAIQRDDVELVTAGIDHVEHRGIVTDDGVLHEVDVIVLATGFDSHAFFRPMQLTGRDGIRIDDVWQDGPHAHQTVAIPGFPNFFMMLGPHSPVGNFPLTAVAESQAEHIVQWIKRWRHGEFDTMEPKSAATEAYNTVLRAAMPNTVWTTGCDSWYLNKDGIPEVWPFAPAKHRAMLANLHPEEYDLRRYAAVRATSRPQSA
Sequence of EthA (Rv3854c) (P9WNF9 whole entry, looked up): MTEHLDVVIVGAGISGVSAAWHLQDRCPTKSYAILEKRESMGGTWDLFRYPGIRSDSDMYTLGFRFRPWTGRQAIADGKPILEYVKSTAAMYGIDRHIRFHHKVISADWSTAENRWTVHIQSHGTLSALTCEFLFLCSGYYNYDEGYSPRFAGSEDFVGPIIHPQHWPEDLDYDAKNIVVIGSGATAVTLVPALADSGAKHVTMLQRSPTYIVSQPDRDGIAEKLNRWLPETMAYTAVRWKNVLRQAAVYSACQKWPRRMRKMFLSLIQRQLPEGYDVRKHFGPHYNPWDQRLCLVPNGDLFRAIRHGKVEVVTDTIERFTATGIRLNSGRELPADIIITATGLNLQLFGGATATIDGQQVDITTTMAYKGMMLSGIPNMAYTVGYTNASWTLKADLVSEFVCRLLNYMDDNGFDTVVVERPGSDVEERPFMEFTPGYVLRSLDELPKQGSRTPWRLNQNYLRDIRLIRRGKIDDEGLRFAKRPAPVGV

| Compound | specific activity (Rv0892) | activity (EthA (Rv3854c)) | activity (Rv0565c) | Km (CCCCCCC(C)=O) [µM] | Km (CCCC(=O)CC(=O)OCC) [µM] |
| --- | --- | --- | --- | --- | --- |
| CCCCCCC(C)=O [2-octanone] | Rv0892 exhibits markedly low catalytic rates on the tested substrates | Rv0565c and EthA are efficient in oxidizing 2-octanone | Rv0565c and EthA are efficient in oxidizing 2-octanone | – | – |
| CCCC(=O)CC(=O)OCC [ethyl 3-oxohexanoate] | Rv0892 exhibits markedly low catalytic rates on the tested substrates | with 2-oct and Et3-ox being the most effective substrates | with 2-oct and Et3-ox being the most effective substrates | – | – |
| MymA (Rv3083), MymAcoli (Mycobacterium tuberculosis H37Rv) | – | – | – | 400 ± 100 | 240 ± 40 |
